Source: patent publication US20220054513A1, “COMBINATION COMPOSITIONS COMPRISING A BETA-LACTAMASE INHIBITOR” (VenatoRx Pharmaceuticals, Inc., priority 2018, published 2022)
Read-outs that look alike come from different tables or passages of the source.

Assays:
[1] = system: carbapenem resistant Enterobacteriaceae (CRE); test: MIC of cefiderocol with Compound 1 vs approved BL/BLI combinations, 120 CRE isolates; details: Klebsiella pneumoniae, IDM
Procedure: A panel of 30 strains of characterized Enterobacteriaceae isolates produce Ambler class A, B, C, and D β-lactamase were used. […] IDM was prepared by adding 100 g of chelex (a chelating agent) to 1 L of sterile CAMBH and stirring for 2 hours. The chelex treated media was then filtered using a 0.2 μm filter and divalent Ca, Mg, and Zn are added back at relevant concentrations. The pH was adjusted to 7.2 using HCl and the media was filtered again to ensure sterility. This created a medium that was devoid of iron but retains appropriate concentration of other cations and was necessary for evaluating the activity of cefiderocol originating from its uptake by bacterial iron transporters. Bacteria strains were grown for 3-5 hours in CAMHB and IDM. Cefiderocol was added either to a microtiter plate in 2-fold serial dilutions in CAMHB and in parallel in IDM. […] Once the test articles were added the plates were inoculated according to CLSI broth microdilution method.
The challenge set of organisms consisted of a variety of Enterobacteriaceae species expressing IMP (n=30), NDM (30), VIM (15), KPC (n=30), and AmpC (n=15).

[2] = system: MDR-Acinetobacter; test: broth microdilution MIC of cefiderocol +/- Compound 1 in IDM, panel of 40 MDR Acinetobacter; format: cell-based, A. baumannii; details: for MIC: read-out: Minimum inhibitory concentration (MIC)
[3] = system: β-lactamase expressing E. cloacae; test: broth microdilution MIC of cefiderocol +/- Compound 1, E. cloacae strains; format: cell-based; details: Enterobacter cloacae
[4] = Acinetobacter baumannii, panel of 40 MDR Acinetobacter, IDM

CC(C)(O/N=C(\C(=O)N[C@@H]1C(=O)N2C(C(=O)[O-])=C(C[N+]3(CCNC(=O)c4ccc(O)c(O)c4Cl)CCCC3)CS[C@H]12)c1csc(N)n1)C(=O)O [FDC, cefiderocol]
0.125 µg/mL: Minimum inhibitory concentration (MIC) ([2]; A. baumannii 157076, IDM) | Minimum inhibitory concentration (MIC) ([2]; A. baumannii 157078, IDM) | Minimum inhibitory concentration (MIC) ([2]; A. baumannii 161761, IDM) | Minimum inhibitory concentration (MIC) ([2]; A. baumannii 163264, IDM) | Minimum inhibitory concentration (MIC) ([2]; A. baumannii 164890, IDM) | Minimum inhibitory concentration (MIC) ([2]; A. baumannii 164891, IDM) | Minimum inhibitory concentration (MIC) ([2]; A. baumannii 165039, IDM) | Minimum inhibitory concentration (MIC) ([2]; A. baumannii CDC-0056, IDM) | MIC ([2]; Acinetobacter baumannii)
0.03 µg/mL: MIC ([2]; Acinetobacter baumannii, A. baumannii 157071, IDM) | MIC ([2]; Acinetobacter baumannii, A. baumannii 163169, IDM) | MIC ([2]; Acinetobacter baumannii, A. baumannii GM236, IDM)
2 µg/mL: MIC ([1]; Klebsiella pneumoniae 1277372 (NDM-7)) | MIC ([1]; Klebsiella pneumoniae 1385622 (NDM-4)) | MIC ([1]; Klebsiella pneumoniae 1420892 (IMP-4)) | MIC ([1]; Klebsiella pneumoniae IHMA 511128 (IMP-26)) | MIC ([1]; Klebsiella pneumoniae IHMA 600482 (CTX-M-15, IMP-26)) | MIC ([1]; Klebsiella pneumoniae SI-128 (IMP-5)) | MIC ([2]; Acinetobacter baumannii, A. baumannii GM239, IDM) | MIC ([3]; read-out: Minimum inhibitory concentration (MIC), E. cloacae Entb239 (p99 AmpC, KPC-3, CTXM-15, GES-1, IMI-1), IDM)
1 µg/mL: MIC ([1]; Klebsiella pneumoniae 1212352 (NDM-6)) | MIC ([1]; Klebsiella pneumoniae 1371730 (NDM-6)) | MIC ([1]; Klebsiella pneumoniae 1459396 (NDM-7)) | MIC ([1]; Klebsiella pneumoniae 1591688 (IMP-4)) | MIC ([1]; Klebsiella pneumoniae 1591702 (IMP-4)) | MIC ([1]; Klebsiella pneumoniae IHMA 511121 (IMP-26)) | MIC ([2]; Acinetobacter baumannii, A. baumannii CDC-0036, IDM) | MIC ([2]; Acinetobacter baumannii, A. baumannii CDC-0083, IDM) | MIC ([2]; Acinetobacter baumannii, A. baumannii CDC-0102, IDM) | MIC ([2]; Acinetobacter baumannii, A. baumannii GM235, IDM) | MIC ([2]; Acinetobacter baumannii, NCTC13301, A. baumannii NCTC 13301, IDM) | MIC ([3]; read-out: Minimum inhibitory concentration (MIC), E. cloacae CDC-93 (KPC), MHBII) | MIC ([3]; read-out: Minimum inhibitory concentration (MIC), E. cloacae CDC-161 (IMP), IDM) | MIC ([3]; read-out: Minimum inhibitory concentration (MIC), E. cloacae Entb239 (p99 AmpC, KPC-3, CTXM-15, GES-1, IMI-1), MHBII)
0.5 µg/mL: MIC ([1]; Klebsiella pneumoniae 1251598 (VIM-26)) | MIC ([1]; Klebsiella pneumoniae 1251599 (VIM-26)) | MIC ([1]; Klebsiella pneumoniae 1277416 (IMP-26)) | MIC ([1]; Klebsiella pneumoniae 1455545 (NDM-4)) | MIC ([1]; Klebsiella pneumoniae 1621162 (VIM-12)) | MIC ([1]; Klebsiella pneumoniae CDC-0080 (IMP-4, TEM-1B, OKP-B-2, OXA-1, SFO-1)) | MIC ([2]; Acinetobacter baumannii, A. baumannii 0045, IDM) | MIC ([2]; Acinetobacter baumannii, A. baumannii 157079, IDM) | MIC ([2]; Acinetobacter baumannii, A. baumannii 161763, IDM) | MIC ([2]; Acinetobacter baumannii, A. baumannii CDC-0033, IDM) | MIC ([2]; Acinetobacter baumannii, A. baumannii CDC-0063, IDM) | MIC ([2]; Acinetobacter baumannii, A. baumannii CDC-0078, IDM) | MIC ([3]; read-out: Minimum inhibitory concentration (MIC), E. cloacae CDC-93 (KPC), IDM)
0.06 µg/mL: MIC ([2]; Acinetobacter baumannii, A. baumannii 157074, IDM) | MIC ([2]; Acinetobacter baumannii, A. baumannii CDC-0101, IDM)
8.1 µg/mL: MIC ([2]; Acinetobacter baumannii, A. baumannii CDC-0088, IDM)
0.25 µg/mL: MIC ([1]; Klebsiella pneumoniae 1251600 (VIM-26)) | MIC ([1]; Klebsiella pneumoniae 1251604 (VIM-26)) | MIC ([1]; Klebsiella pneumoniae 1610707 (VIM-24)) | MIC ([1]; Klebsiella pneumoniae CDC-0034 (IMP-4, TEM-1B, SHV-11)) | MIC ([2]; Acinetobacter baumannii, A. baumannii 157070, IDM) | MIC ([2]; Acinetobacter baumannii, A. baumannii 157072, IDM) | MIC ([2]; Acinetobacter baumannii, A. baumannii 161754, IDM) | MIC ([2]; Acinetobacter baumannii, A. baumannii 164899, IDM) | MIC ([2]; Acinetobacter baumannii, A. baumannii CDC-0035, IDM) | MIC ([2]; Acinetobacter baumannii, A. baumannii CDC-0070, IDM) | MIC ([2]; Acinetobacter baumannii, A. baumannii GM237, IDM) | MIC ([2]; Acinetobacter baumannii, A. baumannii GM238, IDM) | MIC ([2]; Acinetobacter baumannii, ATCC17978, A. baumannii ATCC 17978, IDM) | MIC50 [2, 4]
4 µg/mL: MIC ([1]; Klebsiella pneumoniae 1212347 (NDM-6)) | MIC ([1]; Klebsiella pneumoniae 1286102 (NDM-7)) | MIC ([1]; Klebsiella pneumoniae 1286206 (NDM-7)) | MIC ([1]; Klebsiella pneumoniae 1371650 (NDM-6)) | MIC ([1]; Klebsiella pneumoniae 1379123 (NDM-4)) | MIC ([1]; Klebsiella pneumoniae 1385586 (NDM-4)) | MIC ([1]; Klebsiella pneumoniae 1607267 (IMP-4)) | MIC ([1]; Klebsiella pneumoniae IHMA 511163 (IMP-26)) | MIC ([2]; Acinetobacter baumannii, A. baumannii 157865, IDM) | MIC ([2]; Acinetobacter baumannii, A. baumannii CDC-0037, IDM) | MIC ([2]; Acinetobacter baumannii, A. baumannii SI-141, IDM) | MIC90 [2, 4]
0.059 µg/mL: MIC ([1]; Klebsiella pneumoniae IHMA 469384 (IMP-26, SHV-12))
8 µg/mL: MIC ([1]; Klebsiella pneumoniae 1369220 (NDM-6)) | MIC ([1]; Klebsiella pneumoniae 1369306 (NDM-6)) | MIC ([1]; Klebsiella pneumoniae 1385577 (NDM-4)) | MIC ([1]; Klebsiella pneumoniae 1455463 (NDM-4)) | MIC ([1]; Klebsiella pneumoniae 1459398 (NDM-7)) | MIC ([2]; Acinetobacter baumannii, A. baumannii CDC-0052, IDM)
16 µg/mL: MIC ([1]; Klebsiella pneumoniae 1369251 (NDM-6)) | MIC ([3]; read-out: Minimum inhibitory concentration (MIC), E. cloacae CDC-161 (IMP), MHBII)
